Experiments:
[1] = human, cited from earlier work
Method: This was a randomised, double-blinded, crossover, placebo-controlled clinical study (Fig. 1, Fig. 2, Fig. 3a). Participants were admitted to the Clinical Research Unit (Imperial College Healthcare NHS Trust) and completed five (in healthy men) or two (in healthy women and patients with HA) study visits. […] Study visits in healthy women were conducted in the follicular phase of the menstrual cycle (i.e., days 2–10 inclusive) to contr ... || page 10: Research Governance and Integrity Team Throughout the study there will be at least one physician available 24 hours per day via a direct line, with a second physician on back up, and a secondary direct line to one of the senior physicians. […] Kisspeptin is rapidly cleared (11, 12) and participants would not be anticipated to experience any delayed effects on completion of the study visit. The Chief Investigato ...

[2] = parameters: method as in PMID 37467734; conditions: intravenous and subcutaneous routes, over 1000 healthy men and women and patients; cited from earlier work
[3] = system: serum LH, FSH, oestradiol and progesterone; test: Intranasal kisspeptin-54, reproductive hormone profiles in patients with hypothalamic amenorrhoea; format: in vivo, human
Method: This was a randomised, double-blinded, crossover, placebo-controlled clinical study (Fig. 1, Fig. 2, Fig. 3a). Participants were admitted to the Clinical Research Unit (Imperial College Healthcare NHS Trust) and completed five (in healthy men) or two (in healthy women and patients with HA) study visits. […] Study visits in healthy women were conducted in the follicular phase of the menstrual cycle (i.e., days 2–10 inclusive) to control for changes in reproductive hormones over the course of the cycle and were conducted across two different menstrual cycles to allow washout.
All studies commenced at 08:00 to control for circadian hormonal changes. Participants were instructed to abstain from alcohol, caffeine, and sexual activities from 22:00 preceding each study visit. On arrival, an intravenous cannula was inserted into one antecubital fossa, and blood was sampled at timepoints −30, −15, and 0 min, before intranasal administration of kisspeptin-54 or 0.9% saline (placebo). Following participant education (described below), healthy men self-administered the following 5 interventions under supervision in random order via the intranasal route: 3.2, 6.4, 12.8, and 25.6 nmol/kg of kisspeptin-54, or placebo. Healthy women and patients with HA attended for the same protocol comparing 12.8 nmol/kg of kisspeptin-54 and placebo in random order. After administration of kisspeptin-54 or placebo at timepoint 0 min, serum levels of LH, FSH, and testosterone (in men), or oestradiol and progesterone (in women) were measured every 15 min for 4 h. Heart rate, blood pressure, and the presence of adverse symptoms were recorded every 15 min.
Kisspeptin-54 or placebo was self-administered using nasal spray devices that delivered a single volume of 100 μL per actuation (SP270+ pump, 3959 actuator, 5 mL SGD U-Save glass bottles provided by Nemera, La Verpillière, France). The kisspeptin-54 nasal spray solution formulations were prepared by reconstituting kisspeptin-54 powder stored in sterile vials on the morning of each study visit to produce a solution containing the target dose according to body weight in 400 μL.
Participants were familiarised with the procedure of intranasal application and were provided with written administration instructions ahead of each study visit, as described in.[38] In addition, participants received a 5-min training session using a dummy nasal spray device before starting the study to ensure good technique, which all participants easily understood. Under instruction and supervision from the clinical team, participants primed the nasal sprays then self-administered a total of four sprays of kisspeptin-54 or placebo per visit (i.e., 4 × 100 μL), alternating between nostrils and leaving 60 s between sprays, to allow satisfactory dissipation and avoid solution running out of the nostrils. Nasal sprays containing kisspeptin or placebo were identical in appearance, volume, and administration technique.
Blood samples were collected to measure serum reproductive hormone levels at the timepoints depicted in Fig. 1, Fig. 2, Fig. 3a. Serum samples were stored at −20 °C until analysis. Serum LH, FSH, testosterone (in men), and oestradiol and progesterone (in women) were measured using automated chemiluminescent immunoassays (Abbott Diagnostics, Maidenhead, UK: LH catalogue # 2P40-25, FSH catalogue # 7K75-25, testosterone catalogue # 07K7320, oestradiol catalogue # 7K72-25, progesterone catalogue # 7K77-25). Reference ranges: LH in international units per litre (IU/L), 2–12 (men), 2–10 (follicular), 20–60 (mid-cycle), 4–14 (luteal); FSH in IU/L, 1.7–8 (men), 1.5–8.0 (follicular and luteal), 10–50 (mid-cycle); in men: testosterone in nanomoles per litre (nmol/L), 10–30; and in women: oestradiol in picomoles per litre (pmol/L), <300 (early follicular), 400–1500 (mid-cycle), 200–1000 (luteal) and progesterone in nmol/L, <5.0 (follicular), 3.5–67 (luteal). […]

[4] = intranasal 12.8 nmol/kg, N = 10 (HA) and N = 12 (healthy women)
[5] = intranasal 12.8 nmol/kg, unpaired t-test, N = 10 (HA) and N = 12 (healthy women)
[6] = patients with HA, intranasal 12.8 nmol/kg vs placebo, paired t-test, N = 10
[7] = patients with HA, intranasal 12.8 nmol/kg, two-way ANOVA, 4 h time profile, N = 10
[8] = patients with hypothalamic amenorrhoea, intranasal 12.8 nmol/kg, 4 h sampling, mean ± SEM, N = 10
[9] = patients with hypothalamic amenorrhoea, intranasal 12.8 nmol/kg, mean ± SEM, N = 10

## Kisspeptin-54
[1]; study protocol (supplement 2)
  Intravenous half-life: 28 min
[1]
  Circulating half-life: 27.6 min
[2]
  Adverse effects: without any observed adverse effects
[3]; [4]
  Maximal FSH increase, patients with HA relative to healthy women: over 10 fold
  Maximal LH increase, patients with HA relative to healthy women: over 3 fold
[3]; [5]
  Maximal FSH increase, mean difference patients with HA vs healthy women: 2.77 IU/L
  Maximal LH increase, mean difference patients with HA vs healthy women: 2.95 IU/L
[3]; [6]
  FSH AUC, mean difference vs placebo: 580.0 h·IU/L
  FSH maximum increase, mean difference vs placebo: 3.1 IU/L
  LH AUC, mean difference vs placebo: 756.9 h·IU/L
  LH maximum increase, mean difference vs placebo: 4.3 IU/L
[3]; patients with HA, intranasal 12.8 nmol/kg, N = 10
  Time of maximal stimulation of serum LH post-administration: 30 to 45 min
[3]; patients with HA, intranasal 12.8 nmol/kg, acute 4-h time-course, N = 10
  Effect on circulating oestradiol and progesterone levels: no significant effects
[3]; [7]
  Serum FSH over time, mean difference vs placebo: 2.35 IU/L
  Serum LH over time, mean difference vs placebo: 3.0 IU/L
[3]; [8]
  AUC of the change in serum FSH: 474.9 ± 237.3 h·IU/L
  AUC of the change in serum LH: 600.6 ± 146.7 h·IU/L
[3]; [9]
  Maximum increase from baseline in serum FSH: 3.1 ± 0.3 IU/L
  Maximum increase from baseline in serum LH: 4.4 ± 0.2 IU/L
